Results from publication PMC10791687, “The Piezo channel is a mechano-sensitive complex component in the mammalian inner ear hair cell” (Nature Communications, 2024).

Molecular target: T1, mPz1 (mouse Piezo1) (Mus musculus, UniProt E2JF22)
T1 construct: full-length, mPz1-IRES-GFP plasmid (clone from A. Patapoutian) in mouse Neuro2A cells; also purified/enriched mPz1 in planar lipid bilayer; homotrimer
Assay: single-channel recording in planar lipid bilayer
Format: biochemical
Conditions: purified mPz1, 500 mM KCl, 10 mM MOPS, pH 7.4

T1 sequence (E2JF22 whole entry): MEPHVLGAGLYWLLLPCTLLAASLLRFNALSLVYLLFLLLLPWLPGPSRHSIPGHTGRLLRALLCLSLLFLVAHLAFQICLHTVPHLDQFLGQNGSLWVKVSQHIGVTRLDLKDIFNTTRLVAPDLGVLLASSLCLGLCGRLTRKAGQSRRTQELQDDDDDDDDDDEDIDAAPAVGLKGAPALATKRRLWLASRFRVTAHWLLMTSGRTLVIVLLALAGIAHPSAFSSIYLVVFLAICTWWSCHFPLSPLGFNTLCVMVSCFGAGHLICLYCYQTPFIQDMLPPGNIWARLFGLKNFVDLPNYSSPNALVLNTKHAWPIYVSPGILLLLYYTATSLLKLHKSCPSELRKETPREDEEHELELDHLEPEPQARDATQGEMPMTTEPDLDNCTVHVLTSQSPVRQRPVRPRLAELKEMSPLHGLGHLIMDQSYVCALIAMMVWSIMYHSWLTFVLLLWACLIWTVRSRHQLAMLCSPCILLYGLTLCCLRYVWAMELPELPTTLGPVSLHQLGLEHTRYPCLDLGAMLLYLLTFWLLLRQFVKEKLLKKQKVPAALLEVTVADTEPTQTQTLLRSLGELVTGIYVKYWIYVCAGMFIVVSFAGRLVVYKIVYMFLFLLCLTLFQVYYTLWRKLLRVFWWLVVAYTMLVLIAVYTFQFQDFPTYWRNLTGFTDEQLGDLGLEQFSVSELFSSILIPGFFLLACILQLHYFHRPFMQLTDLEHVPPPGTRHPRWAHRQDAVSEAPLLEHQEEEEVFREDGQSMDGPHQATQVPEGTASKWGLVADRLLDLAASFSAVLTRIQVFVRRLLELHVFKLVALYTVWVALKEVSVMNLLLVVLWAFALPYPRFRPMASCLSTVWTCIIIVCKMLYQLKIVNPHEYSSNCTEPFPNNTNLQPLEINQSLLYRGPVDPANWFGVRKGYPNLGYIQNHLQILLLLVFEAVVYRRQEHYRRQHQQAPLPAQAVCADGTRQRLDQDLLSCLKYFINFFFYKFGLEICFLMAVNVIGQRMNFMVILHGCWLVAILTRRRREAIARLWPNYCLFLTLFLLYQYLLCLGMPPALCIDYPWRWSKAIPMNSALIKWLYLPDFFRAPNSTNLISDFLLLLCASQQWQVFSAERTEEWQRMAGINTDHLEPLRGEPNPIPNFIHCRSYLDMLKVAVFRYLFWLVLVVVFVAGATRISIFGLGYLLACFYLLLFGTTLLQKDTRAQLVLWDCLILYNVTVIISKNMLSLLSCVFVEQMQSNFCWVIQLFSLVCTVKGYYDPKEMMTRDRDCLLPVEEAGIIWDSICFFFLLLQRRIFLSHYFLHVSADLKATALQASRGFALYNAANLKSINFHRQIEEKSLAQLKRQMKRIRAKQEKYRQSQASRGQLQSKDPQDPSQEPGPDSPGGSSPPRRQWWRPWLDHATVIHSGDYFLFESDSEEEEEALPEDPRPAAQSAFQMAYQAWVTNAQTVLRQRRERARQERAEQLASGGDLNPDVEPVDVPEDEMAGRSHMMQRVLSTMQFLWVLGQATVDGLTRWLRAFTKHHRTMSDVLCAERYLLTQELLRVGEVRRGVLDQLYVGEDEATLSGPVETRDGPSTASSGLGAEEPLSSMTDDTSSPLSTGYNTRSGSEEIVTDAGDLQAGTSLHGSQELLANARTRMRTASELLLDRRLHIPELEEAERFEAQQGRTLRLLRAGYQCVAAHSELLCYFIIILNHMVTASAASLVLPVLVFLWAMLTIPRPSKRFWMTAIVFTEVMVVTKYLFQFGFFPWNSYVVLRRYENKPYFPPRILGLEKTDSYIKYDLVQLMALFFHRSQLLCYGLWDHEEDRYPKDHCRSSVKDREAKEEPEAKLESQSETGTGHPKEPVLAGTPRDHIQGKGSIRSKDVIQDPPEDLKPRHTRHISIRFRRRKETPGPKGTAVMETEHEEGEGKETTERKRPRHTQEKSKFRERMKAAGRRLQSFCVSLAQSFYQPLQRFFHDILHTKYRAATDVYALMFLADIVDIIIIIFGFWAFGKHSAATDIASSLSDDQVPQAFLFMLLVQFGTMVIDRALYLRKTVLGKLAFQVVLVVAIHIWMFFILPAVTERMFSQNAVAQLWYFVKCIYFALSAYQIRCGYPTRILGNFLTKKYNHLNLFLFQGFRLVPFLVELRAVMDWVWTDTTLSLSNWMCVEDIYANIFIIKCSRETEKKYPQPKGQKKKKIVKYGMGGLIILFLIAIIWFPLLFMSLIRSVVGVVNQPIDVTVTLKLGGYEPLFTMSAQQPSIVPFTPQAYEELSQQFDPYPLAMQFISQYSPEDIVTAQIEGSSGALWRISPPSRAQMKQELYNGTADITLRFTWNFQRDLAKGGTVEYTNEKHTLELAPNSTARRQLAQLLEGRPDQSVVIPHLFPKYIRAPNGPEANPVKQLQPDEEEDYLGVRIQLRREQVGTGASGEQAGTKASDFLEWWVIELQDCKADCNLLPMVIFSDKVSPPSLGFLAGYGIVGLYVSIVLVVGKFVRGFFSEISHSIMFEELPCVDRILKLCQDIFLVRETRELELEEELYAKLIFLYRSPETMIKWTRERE

CN[C@@H]1[C@H](O[C@H]2[C@H](O[C@H]3[C@H](O)[C@@H](O)[C@H](N=C(N)N)[C@@H](O)[C@@H]3N=C(N)N)O[C@@H](C)[C@]2(O)CO)O[C@@H](CO)[C@H](O)[C@H]1O [dihydrostreptomycin]
single-channel recording in planar lipid bilayer: DHS, GsMTx4, and ruthenium blocked the mPz1-channel activity in lipid bilayers
